Our source for the Emax, EC50 and Ki values is US20100035871A1, “BENZOXAZINE DERIVATIVES AND USES THEREOF” (priority 2006, published 2010).

Assay [1] deals with T1, human 5-HT2C receptor (Homo sapiens, UniProt P28335).
T1 construct: expressed in transfected cells; host or cells: CHO (Chinese Hamster Ovary) cells; membrane preparation
T1 sequence (P28335 33-458): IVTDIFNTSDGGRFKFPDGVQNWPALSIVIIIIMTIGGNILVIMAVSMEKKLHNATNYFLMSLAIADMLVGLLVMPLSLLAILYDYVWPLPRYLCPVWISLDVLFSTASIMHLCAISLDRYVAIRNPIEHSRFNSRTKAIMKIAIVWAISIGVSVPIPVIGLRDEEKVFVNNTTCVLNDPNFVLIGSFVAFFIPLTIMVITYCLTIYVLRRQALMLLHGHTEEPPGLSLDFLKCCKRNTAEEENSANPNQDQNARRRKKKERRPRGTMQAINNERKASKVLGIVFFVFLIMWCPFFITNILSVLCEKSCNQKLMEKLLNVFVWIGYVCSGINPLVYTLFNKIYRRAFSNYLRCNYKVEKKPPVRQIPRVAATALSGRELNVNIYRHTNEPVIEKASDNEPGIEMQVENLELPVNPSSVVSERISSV
The assay can be described thus: 5-HT2C receptor-stimulated calcium mobilization (FLIPR) in CHO cells. To be noted: for Emax: CHO, read-out: 5-HT2C Function EMax (%); for EC50: calcium mobilization, CHO cells, read-out: 5-HT2C Function EC50. It is filed as cell-based.

Assay [2] deals with T1, human 5-HT2C receptor. Briefly: 5-HT2C receptor binding, [125I]DOI displacement, membranes of transfected CHO cells. To be noted: read-out: 5-HT2C Binding Ki avg.

The Emax is the maximal effect, on the per cent scale that the assay sets. For orientation: EC50 means the midpoint of the concentration-response curve. Usually Ki stands for the dissociation constant of the complex between target and ligand, obtained from inhibition or displacement. Consider `CN1CC(CN)Oc2c(-c3cc(Cl)ccc3Cl)cccc21` (racemic) [Example 13, 1-[8-(2,5-Dichlorophenyl)-4-methyl-3,4-dihydro-2H-1,4-benzoxazin-2-yl]methanamine], for which, at human 5-HT2C receptor [1], the Emax stood at 70% and the EC50 was determined as 131 nM. In addition, at human 5-HT2C receptor [2], the Ki worked out at 12.8 nM.
Turning to `NCC1CNc2cccc(-c3cc(Cl)ccc3Cl)c2O1` (racemic) [Example 14, 1-[8-(2,5-Dichlorophenyl)-3,4-dihydro-2H-1,4-benzoxazin-2-yl]methanamine], on human 5-HT2C receptor [1], the maximum response (Emax) came to 60% and the EC50 turned out to be 12 nM. For the same molecule, on human 5-HT2C receptor [2], the Ki amounted to 6.4 nM.
Regarding `NCC1CNc2cccc(-c3ccc(Cl)cc3Cl)c2O1` (racemic) [Example 15, 1-[8-(2,4-Dichlorophenyl)-3,4-dihydro-2H-1,4-benzoxazin-2-yl]methanamine], on human 5-HT2C receptor [1], the maximal effect (Emax) turned out to be 70% and the EC50 is 8 nM. Further, the Ki on human 5-HT2C receptor [2] was 15.9 nM.
As for `NCC1CNc2cccc(-c3ccccc3Cl)c2O1` (racemic) [Example 16, 1-[8-(2-Chlorophenyl)-3,4-dihydro-2H-1,4-benzoxazin-2-yl]methanamine], on human 5-HT2C receptor [1], the Emax was found to be 70% and the EC50 came to 3 nM. Also, the Ki at human 5-HT2C receptor [2] came to 14 nM.
The corresponding values for `Cc1ccccc1-c1cccc2c1OC(CN)CN2` (racemic) [Example 17, 1-[8-(2-Methylphenyl)-3,4-dihydro-2H-1,4-benzoxazin-2-yl]methanamine] are 72%, 101 nM and 31 nM.
Consider `NCC1CNc2cccc(-c3ccc(Cl)cc3C(F)(F)F)c2O1` (racemic) [Example 18, 1-{8-[4-Chloro-2-(trifluoromethyl)phenyl]-3,4-dihydro-2H-1,4-benzoxazin-2-yl}methanamine], for which, on human 5-HT2C receptor [1], the Emax was found to be 56% and the EC50 came out at 109 nM. On human 5-HT2C receptor [2], the inhibition constant (Ki) was determined as 7.9 nM.
On to `Cc1cc(Cl)ccc1-c1cccc2c1OC(CN)CN2` (racemic) [Example 20, 1-[8-(4-chloro-2-methylphenyl)-3,4-dihydro-2H-1,4-benzoxazin-2-yl]methanamine], for which, at human 5-HT2C receptor [1], the maximal effect (Emax) came to 75% and the concentration giving a half-maximal response (EC50) turned out to be 285 nM. The Ki on human 5-HT2C receptor [2] was 19.5 nM.
The corresponding values for `NCC1CNc2cccc(-c3ccccc3C(F)(F)F)c2O1` (racemic) [Example 22, 1-{8-[2-(Trifluoromethyl)phenyl]-3,4-dihydro-2H-1,4-benzoxazin-2-yl}methanamine] are 72%, 39 nM and 7.2 nM.
The corresponding values for `NCC1CNc2cccc(-c3ccc(C(F)(F)F)cc3C(F)(F)F)c2O1` (racemic) [Example 23, 1-{8-[2,4-Bis(trifluoromethyl)phenyl]-3,4-dihydro-2H-1,4-benzoxazin-2-yl}methanamine] are 79%, 367 nM and 39.5 nM.
In the case of `COc1ccc(-c2cccc3c2OC(CN)CN3)c(C)c1` (racemic) [Example 24, 1-[8-(4-Methoxy-2-methylphenyl)-3,4-dihydro-2H-1,4-benzoxazin-2-yl]methanamine], at human 5-HT2C receptor [1], the Emax was 75% and the EC50 came to 25 nM. Besides, the inhibition constant Ki at human 5-HT2C receptor [2] came out at 14.9 nM.
`COc1ccc(-c2cc(Cl)cc3c2NC(CN)CO3)c(C)c1` (racemic) [Example 27, 1-[7-chloro-5-(4-methoxy-2-methylphenyl)-3,4-dihydro-2H-1,4-benzoxazin-3-yl]methanamine]: on human 5-HT2C receptor [1], the maximal response (Emax) is 47% and the 50% effective concentration (EC50) amounted to 1290 nM. The Ki at human 5-HT2C receptor [2] turned out to be 53.2 nM.
In the same order, the values of `Cc1ccc(-c2cc(Cl)cc3c2NC(CN)CO3)c(C(F)(F)F)c1` (racemic) [Example 31, 1-{7-chloro-5-[4-methyl-2-(trifluoromethyl)phenyl]-3,4-dihydro-2H-1,4-benzoxazin-3-yl}methanamine] are 60%, 876 nM and 30.5 nM.
For `COc1ccc(-c2cc(Cl)cc3c2NC(CN)CO3)c(Cl)c1` (racemic) [Example 32, 1-[7-chloro-5-(2-chloro-4-methoxyphenyl)-3,4-dihydro-2H-1,4-benzoxazin-3-yl]methanamine], on human 5-HT2C receptor [1], the maximum response (Emax) is 57% and the EC50 was determined as 1010 nM. For the same molecule, the Ki on human 5-HT2C receptor [2] turned out to be 29.5 nM.
In the case of `NCC1COc2cc(Cl)cc(-c3ccccc3Cl)c2N1` (racemic) [Example 36, 1-[7-chloro-5-(2-chlorophenyl)-3,4-dihydro-2H-1,4-benzoxazin-3-yl]methanamine], on human 5-HT2C receptor [1], the maximal effect (Emax) was 53% and the EC50 was 845 nM. The Ki on human 5-HT2C receptor [2] worked out at 46.8 nM.
Turning to `NCC1COc2cc(F)cc(-c3ccccc3C(F)(F)F)c2N1` (racemic) [Example 55, 1-{7-fluoro-5-[2-(trifluoromethyl)phenyl]-3,4-dihydro-2H-1,4-benzoxazin-3-yl}methanamine], on human 5-HT2C receptor [1], the Emax is 54% and the concentration for a half-maximal effect (EC50) was 331 nM. In addition, on human 5-HT2C receptor [2], the Ki worked out at 19.3 nM.
In the same order, the values of `COc1ccc(-c2cc(F)cc3c2NC(CN)CO3)c(Cl)c1` (racemic) [Example 59, 1-[5-(2-chloro-4-methoxyphenyl)-7-fluoro-3,4-dihydro-2H-1,4-benzoxazin-3-yl]methanamine] are 59%, 138 nM and 36.9 nM.
`NC[C@H]1CNc2cccc(-c3ccccc3Cl)c2O1` [Example 39, 1-[(2S)-8-(2-chlorophenyl)-3,4-dihydro-2H-1,4-benzoxazin-2-yl]methanamine]: at human 5-HT2C receptor [1], the Emax was found to be 60% and the EC50 was determined as 6.87 nM. Further, the inhibition constant (Ki) on human 5-HT2C receptor [2] worked out at 14.8 nM.
In the case of `NC[C@@H]1CNc2cccc(-c3ccccc3Cl)c2O1` [Example 40, 1-[(2R)-8-(2-chlorophenyl)-3,4-dihydro-2H-1,4-benzoxazin-2-yl]methanamine], at human 5-HT2C receptor [1], the maximal response (Emax) is 45% and the EC50 stood at 44.3 nM. For the same molecule, the Ki on human 5-HT2C receptor [2] is 60.5 nM.
Take `NC[C@@H]1CNc2cccc(-c3ccccc3C(F)(F)F)c2O1` [Example 41, 1-{(2R)-8-[2-(trifluoromethyl)phenyl]-3,4-dihydro-2H-1,4-benzoxazin-2-yl}methanamine]: at human 5-HT2C receptor [1], the maximal effect (Emax) amounted to 62% and the EC50 was determined as 10.5 nM. In addition, at human 5-HT2C receptor [2], the Ki was 16.6 nM.
In the case of `NC[C@H]1CNc2cccc(-c3ccccc3C(F)(F)F)c2O1` [Example 47, 1-{(2S)-8-[2-(trifluoromethyl)phenyl]-3,4-dihydro-2H-1,4-benzoxazin-2-yl}methanamine], on human 5-HT2C receptor [1], the Emax is 80% and the half-maximal effective concentration (EC50) was determined as 2.74 nM. For the same molecule, the inhibition constant Ki at human 5-HT2C receptor [2] was 35 nM.
As for `COc1ccc(-c2cccc3c2O[C@@H](CN)CN3)c(C)c1` [Example 50, 1-[(2S)-8-(4-methoxy-2-methylphenyl)-3,4-dihydro-2H-1,4-benzoxazin-2-yl]methanamine], at human 5-HT2C receptor [1], the Emax was 74% and the half-maximal effective concentration (EC50) is 0.72 nM. In addition, the inhibitory constant (Ki) on human 5-HT2C receptor [2] is 33.3 nM.
The corresponding values for `COc1ccc(-c2cccc3c2O[C@@H](CN)CN3)c(Cl)c1` [Example 52, 1-[(2S)-8-(2-chloro-4-methoxyphenyl)-3,4-dihydro-2H-1,4-benzoxazin-2-yl]methanamine] are 78%, 0.17 nM and 9.05 nM.
